# Measured values from patent US20030049305A1, “Preserved feedstuffs and process for their production” (priority 2001, published 2003).
# Assays:
# [1] = system: S. typhimurium NCTC 10527; assay: Bacterial count in whey powder paste inoculated with Salmonella typhimurium, with LAE added; type: cell-based; conditions: inoculum approximately 3×10^4/g, whey powder paste pH 6.1-6.2
# Description: (§1) The invention is described in more detail by the examples below. In these examples partially desugared whey powder is used, a constituent of many feedstuffs which was set to the pH range of 6.1-6.2 which is favorable for the growth of many bacteria. The whey powder was made into a paste using aqueous buffer solution, so that together with the bacterial suspension in physiological saline a ratio of whey powder to water of approximately 2:1 resulted. LAE was added to the samples at concentrations of 200, 400 and 800 mg/kg, while a control sample received no addition. The bacterial count was determined in a conventional manner in the resultant pastes immediately after their preparation, after 24 h and after 48 h of storage at room temperature.
# Effect on Salmonella typhimurium (approximately 3×10^4/g)
# A paste of whey powder prepared in the manner described was inoculated with approximately 3×10^4/g S. typhimurium NCTC 10527.
# [2] = system: L. monocytogenes ATCC 13311; assay: Bacterial count in whey powder paste inoculated with Listeria monocytogenes, with LAE added; type: cell-based; conditions: whey powder paste pH 6.1-6.2; for bacterial count after 48 h as % of the value on addition: 800 mg of LAE/kg, 48 h storage at room temperature; for change of bacterial count versus control sample without LAE: LAE 200, 400 and 800 mg/kg, after 24 h, continued with longer storage at room temperature
# Description: as §1
# Effect on Listeria monocytogenes (approximately 5×10^5/g)
# A paste of whey powder prepared in the manner described was inoculated with approximately 5×10^5/g L. monocytogenes ATCC 13311. […] At an addition of 800 mg of LAE/kg, the bacterial count after 48 h was approximately 15% of the value on addition.
# Effect on Listeria monocytogenes (approximately 2×10^3/g)
# A paste of whey powder prepared in the manner described was inoculated with approximately 2×10^3/g L. monocytogenes ATCC 13311. […] At an addition of 800 mg of LAE/kg, the bacterial count after 48 h was less than 20% of the value on addition.
# [3] = system: E. coli O0157:H7 EDL 933; assay: Bacterial count in whey powder paste inoculated with E. coli O157:H7, with LAE added; type: cell-based, Escherichia coli O157:H7; conditions: whey powder paste pH 6.1-6.2; for bacterial count after 48 h as % of the value on addition: 800 mg of LAE/kg, 48 h storage at room temperature; for change of bacterial count versus control sample without LAE: LAE 200, 400 and 800 mg/kg, after 24 h, continued with longer storage at room temperature
# Description: as §1
# Effect on Escherichia coli O157:H7 (approximately 6×10^5/g)
# A paste of whey powder prepared in the manner described was inoculated with approximately 6×10^5/g of E. coli O0157:H7 EDL 933. […] At an addition of 800 mg of LAE/kg, the bacterial count after 48 h was less than 10% of the value on addition.
# Effect on Escherichia coli O157:H7 (approximately 3×1 0^3/g)
# A paste of whey powder prepared in the manner described was inoculated with approximately 3×10^3/g of E. coli O0157:H7 EDL 933. […] At an addition of 800 mg of LAE/kg, the bacterial count after 48 h was less than 10% of the value on addition.
# [4] = inoculum approximately 2×10^3/g
# [5] = inoculum approximately 5×10^5/g
# [6] = inoculum approximately 3×10^3/g
# [7] = inoculum approximately 6×10^5/g
smiles,measurement,setting,value
"CCCCCCCCCCCC(=O)N[C@@H](CCCNC(=N)N)C(=O)OCC [LAE, lauroylarginine ethyl ester]",detectability of test bacteria after 48 h,"[1]; 800 mg of LAE/kg, 48 h storage at room temperature",no longer detectable
same,change of bacterial count versus control sample without LAE,"[1]; LAE 200, 400 and 800 mg/kg, after 24 h, continued with longer storage at room temperature",much more marked concentration-dependent decrease
same,bacterial count after 48 h as % of the value on addition,[2]; [4],less than 20%
same,change of bacterial count versus control sample without LAE,[2]; [4],more marked concentration-dependent decrease
same,bacterial count after 48 h as % of the value on addition,[2]; [5],approximately 15%
same,change of bacterial count versus control sample without LAE,[2]; [5],more marked concentration-dependent decrease
same,bacterial count after 48 h as % of the value on addition,[3]; [6],less than 10%
same,change of bacterial count versus control sample without LAE,[3]; [6],much more marked concentration-dependent decrease
same,bacterial count after 48 h as % of the value on addition,[3]; [7],less than 10%
same,change of bacterial count versus control sample without LAE,[3]; [7],marked concentration-dependent decrease
